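The compound was tested at five concentrations on cells cultured in 96-well plates, with a 48-hour exposure period. TGI is the concentration that stops growth completely.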
Legend:
Experiment in all cases: growth of human tumour cells (NCI), 48 h
[1] = tested on: HCT-116 colon
[2] = tested on: MDA-MB-435
[3] = tested on: K-562 leukemia
[4] = tested on: U251 CNS
[5] = tested on: RXF 393 renal
[6] = tested on: HOP-92 NSCLC
[7] = tested on: CCRF-CEM leukemia
[8] = tested on: IGROV1 ovarian
[9] = tested on: NCI/ADR-RES ovarian
[10] = tested on: A549 NSCLC

Row | Structure (SMILES) | TGI [1] | TGI [2] | TGI [3] | TGI [4] | TGI [5] | TGI [6] | TGI [7] | TGI [8] | TGI [9] | TGI [10]
1 | O=c1oc2cc(O)ccc2cc1-c1nc2ccccc2s1 | 47 µM | 90.1 µM | > 100 µM | 55.7 µM | 79.9 µM | > 100 µM | 26.8 µM | > 100 µM | 44.7 µM | 55.1 µM
2 | CCOC(=O)NC(NNc1ccc([N+](=O)[O-])cc1[N+](=O)[O-])(C(F)(F)F)C(F)(F)F | > 100 µM | > 100 µM | > 100 µM | 64.6 µM | > 100 µM | 47.3 µM | 72.3 µM | > 100 µM | > 100 µM | > 100 µM
3 | COc1cc(C=Nc2ccc(S(N)(=O)=O)cc2)cc(OC)c1 | > 50 µM | 49.3 µM | > 50 µM | > 50 µM | > 50 µM | > 50 µM | > 50 µM | > 50 µM | > 50 µM | > 50 µM
4 | CC(=O)[O-].CC(=O)[O-].O=C(N/N=C/c1cc(Cl)cc(Cl)c1[OH2+])c1ccncc1.[Zn+2] | > 100 µM | – | > 100 µM | > 100 µM | > 100 µM | – | > 100 µM | > 100 µM | – | > 100 µM
5 | COc1ccc(N=Nc2c(C)c(C#N)c(=S)n(C3OC(COC(C)=O)C(OC(C)=O)C(OC(C)=O)C3OC(C)=O)c2-c2ccccc2)cc1 (stereo not drawn) | 15.6 µM | 27.4 µM | > 100 µM | 22.6 µM | 23.7 µM | 7.83 µM | > 100 µM | – | 24.4 µM | 29.7 µM
6 | O=C(O)c1cncc(C(=O)O)c1 | > 100 µM | > 100 µM | > 100 µM | > 100 µM | > 100 µM | – | > 100 µM | > 100 µM | > 100 µM | > 100 µM
7 | O=C(Nc1nncs1)NS(=O)(=O)n1cnc2ccccc21 | > 100 µM | > 100 µM | – | > 100 µM | > 100 µM | > 100 µM | > 100 µM | > 100 µM | > 100 µM | > 100 µM
8 | O=C1c2ccccc2C(=O)C2C3c4ccccc4C(c4ccccc43)C12 (stereo not drawn) | > 100 µM | – | 32.2 µM | > 100 µM | 22.7 µM | – | 26 µM | 78.3 µM | – | > 100 µM
9 | N#CC(C#N)=Cc1ccc(C=C2SC3=C(SCCS3)S2)s1 | > 100 µM | 7.37 µM | – | > 100 µM | – | > 100 µM | > 100 µM | > 100 µM | 42.8 µM | > 100 µM
10 | C=CCOC(=O)CCCCCCCCCCCCCCCOC(=O)c1c(CCC[C@@H](C)O[Si](C)(C)C(C)(C)C)nc(=O)n2c1CC[C@H]2CC1(CC/C=C\[C@H](CC)O[Si](C(C)C)(C(C)C)C(C)C)OCCO1 | > 100 µM | > 100 µM | – | 31.8 µM | – | 41.9 µM | > 100 µM | – | > 100 µM | > 100 µM
11 | NC(N)=NS(=O)(=O)c1ccc(Nc2c3ccccc3nc3c(C(=O)NC(CO)(CO)CO)cccc23)cc1 | – | > 100 µM | > 100 µM | > 100 µM | – | 48.9 µM | 54.8 µM | > 100 µM | > 100 µM | 38.2 µM
12 | c1cc2cc(c1)CN1CCNCCN(CCNCC1)Cc1cccc(c1)CN1CCNCCN(CCNCC1)C2 | > 100 µM | > 100 µM | > 100 µM | > 100 µM | – | – | – | > 100 µM | > 100 µM | > 100 µM
13 | O=C(O)C(Cc1cnc[nH]1)N=Cc1nc(-c2ccccc2)oc1O (stereo not drawn) | > 100 µM | – | > 100 µM | > 100 µM | > 100 µM | > 100 µM | > 100 µM | > 100 µM | – | > 100 µM
14 | COC(=O)c1cc(-c2ccc(-c3ccc(O)cc3)cc2)cc(-c2ccc(-c3ccc(O)cc3)cc2)c1 | 17.9 µM | 24.9 µM | 17.6 µM | – | 20.9 µM | 20.9 µM | 31.2 µM | 21.1 µM | 30.1 µM | 20.9 µM
15 | C[C@@H]1OC(=O)C[C@H]2CC(=O)N(CCC3CN(S(=O)(=O)C(F)(F)F)c4ccc(Cc5ccc6c(c5)C(CCN5C[C@H]7[C@@H](CC(=O)O[C@H]7C)CC5=O)CN6S(=O)(=O)C(F)(F)F)cc43)C[C@@H]21 (stereo partly drawn) | > 100 µM | > 100 µM | > 100 µM | > 100 µM | > 100 µM | > 100 µM | > 100 µM | – | > 100 µM | > 100 µM
16 | c1ccc(/N=N\Nc2ccc(-c3nc4ccccc4o3)cc2)nc1 | > 100 µM | > 100 µM | > 100 µM | > 100 µM | – | > 100 µM | – | > 100 µM | > 100 µM | > 100 µM
17 | O=c1c2ccccc2c2c1c1c3ccccc3c(=O)c1c1c3ccccc3c(=O)c21 | > 100 µM | > 100 µM | > 100 µM | > 100 µM | – | – | > 100 µM | > 100 µM | > 100 µM | > 100 µM
18 | Cc1cc(N(CCC#N)CCC#N)ccc1/C(N=Nc1ccccc1)=N\NC(=O)c1ccccc1 | > 100 µM | > 100 µM | 44.7 µM | > 100 µM | > 100 µM | – | 61.7 µM | > 100 µM | 75.5 µM | > 100 µM
19 | COc1ccccc1-c1nc2ccccc2c(=O)[nH]1 | > 100 µM | > 100 µM | – | > 100 µM | > 100 µM | – | > 100 µM | > 100 µM | > 100 µM | > 100 µM
20 | CCN(CC)CCNc1ccc2ncn3c4c(OC)cccc4c(=O)c1c23 | 10.1 µM | 20.7 µM | 23.3 µM | 19.3 µM | 11.6 µM | 18.4 µM | 17.3 µM | 34.7 µM | – | 27.6 µM
21 | CC(=O)N1C(C(=O)NNc2ccccc2)CSC1c1ccccc1 (stereo not drawn) | > 100 µM | > 100 µM | > 100 µM | > 100 µM | – | > 100 µM | > 100 µM | > 100 µM | > 100 µM | > 100 µM
22 | Nc1ccc(C(=O)NN2C(=O)C(Cl)C2c2ccc([N+](=O)[O-])cc2)cc1 (stereo not drawn) | 4.31 µM | – | 36.2 µM | 5.28 µM | – | 37.1 µM | 14 µM | 16.6 µM | – | 25.8 µM
23 | NC(CCCCN=Cc1nc(-c2ccccc2)oc1O)C(=O)O (stereo not drawn) | > 100 µM | – | > 100 µM | > 100 µM | > 100 µM | > 100 µM | > 100 µM | > 100 µM | – | > 100 µM
